Test results taken from patent US7109370B2, “Substituted phenylketoenols” (Bayer Aktiengesellschaft, priority 1997, dated 2006).

Key:
Format in all cases: in vivo
[1] = tested on: greenhouse red spider mite Tetranychus urticae; assay: Tetranychus test (OP-resistant/dip treatment); conditions: after 14 days, infested bean plants dipped
Procedure: Tetranychus Test (OP-Resistant/Dip Treatment)
(§1) To produce a suitable preparation of active compound, 1 part by weight of active compound is mixed with the stated amount of solvent and the stated amount of emulsifier, and the concentrate is diluted with water to the desired concentration.
Bean plants (Phaseolus vulgaris) which are heavily infested by all stages of the greenhouse red spider mite Tetranychus urticae are dipped into a preparation of active compound of the desired concentration.
After the desired period of time, the kill in % is determined. 100% means that all spider mites have been killed; 0% means that none of the spider mites have been killed.

[2] = tested on: green rice leaf hoppers (Nephotettix cincticeps); assay: Nephotettix test (dipped rice seedlings); conditions: active compound concentration 0.1%, after 6 days
Procedure: as §1
Rice seedlings (Oryzae sativa) are treated by being dipped into the preparation of active compound of the desired concentration and are populated with green rice leaf hoppers (Nephotettix cincticeps) while the seedlings are still moist.
After the desired period of time, the kill in % is determined. 100% means that all leaf hoppers have been killed; […] means that none of the leaf hoppers have been killed.

[3] = tested on: larvae of the mustard beetle (Phaedon cochleariae); assay: Phaedon larvae test (dipped cabbage leaves); conditions: active compound concentration 0.1%, after 7 days
Procedure: Phaedon Larvae Test [table] To produce a suitable preparation of active compound, 1 part by weight of active compound is mixed with the stated amount of solvent and the stated amount of emulsifier, and the concentrate is diluted with water to the desired concentration. Cabbage leaves (Brassica oleracea) are treated by being dipped into the preparation of active compound of the desired concentration and are populated with larvae of the mustard beetle (Phaedon cochleariae) while the leaves are still moist.

[4] = tested on: peach aphids (Myzus persicae); assay: Myzus test (dipped cabbage leaves); conditions: active compound concentration 0.1%; after 6 days; infested cabbage leaves dipped
Procedure: as §1
Cabbage leaves (Brassica oleracea) which are heavily infested by peach aphids (Myzus persicae) are treated by being dipped into the preparation of active compound of the desired concentration.
After the desired period of time, the kill in % is determined. 100% means that all aphids have been killed; 0% means that none of the aphids have been killed.

[5] = tested on: Myzus persicae; assay: Critical concentration test/root-systemic action, Myzus persicae; conditions: 20 ppm active compound in soil; peppers; populated after 7 days, evaluated after a further 6 days
Procedure: Critical Concentration Test/Root-systemic Action
as §1
(§2) The preparation of active compound is intimately mixed with soil. The concentration of the active compound in the preparation is of practically no importance here, only the amount by weight of active compound per unit volume of soil, which is given in ppm (=mg/l), being decisive. The treated soil is transferred into pots and these are planted with peppers at the cotyledon stage. The active compound can in this way be taken up from the soil by the roots of the plants and be transported into the leaves.
(§3) After a further 6 days, evaluation is carried out by counting or estimating the dead animals. The root-systemic action of the active compound is deduced from the mortality figures. It is 100% if all the test animals have been killed and 0% if just as many test insects are still alive as in the case of the untreated control.

[6] = tested on: caterpillars of the owlet moth (Spodoptera frugiperda); assay: Spodoptera frugiperda test (dipped cabbage leaves); conditions: active compound concentration 0.1%, after 7 days
Procedure: Spodoptera frugiperda Test
as §1
Cabbage leaves (Brassica oleracea) are treated by being dipped into the preparation of active compound of the desired concentration and are populated with caterpillars of the owlet moth (Spodoptera frugiperda) while the leaves are still moist.
After the desired period of time, the kill in % is determined. 100% means that all caterpillars have been killed; 0% means that none of the caterpillars have been killed.

[7] = tested on: Aphis fabae; assay: Critical concentration test/root-systemic action, Aphis fabae; conditions: soil, read-out: root-systemic effect (mortality)
Procedure: Critical Concentration Test/Root-Systemic Action
as §1
as §2, with “pregerminated broad beans.” for “peppers at the cotyledon stage.”
as §3

[8] = active compound concentration 0.1%
[9] = active compound concentration 0.02%

How did the “effect (kill in %)” value [1, 8] turn out when `Cc1ccc(C2=C(O)C3(CCOC(C)C3)NC2=O)c(C)c1` (single isomer, unassigned) [I-a-4] was run?
The value was 100%.

Which kill in % [2] does the source give for `Cc1ccc(C2=C(O)C3(CCOC(C)C3)NC2=O)c(Cl)c1` (single isomer, unassigned) [I-a-7] here?
Its kill in % is 100%.

What about the kill in % [3] of the same compound?
The kill in % was 100%.

What about the “effect (kill in %)” value [1, 8] of the same compound?
The value was 100%.

`Cc1cc(Cl)cc(Cl)c1C1=C(O)C2(CCOC(C)C2)NC1=O` (single isomer, unassigned) [I-a-8] was tested. Which kill in % [3] did it give?
The kill in % was 100%.

Which kill in % [4] does the source give for `Cc1cc(Cl)c(C2=C(O)C3(CCOC(C)C3)NC2=O)c(Cl)c1` (single isomer, unassigned) [I-a-9] here?
The kill in % was 100%.

And the “effect (kill in %)” value [1, 8]?
Its value is 100%.

`Cc1cc(C)c(C2=C(O)C3(CCOC(C)C3)NC2=O)c(C)c1C` (single isomer, unassigned) [I-a-10] was tested. Which kill in % [4] did it give?
The kill in % was 100%.

For `Cc1cc(C#N)cc(C)c1C1=C(O)C2(CCOC(C)C2)NC1=O` (single isomer, unassigned) [I-a-12], which kill in % [4] is on record?
The kill in % was 100%.

With `CC1CC2(CCO1)NC(=O)C(c1ccc(Br)cc1Cl)=C2O` (single isomer, unassigned) [I-a-15] as the compound, how does the kill in % [4] read?
The kill in % was 100%.

With `Cc1cc(Cl)cc(C)c1C1=C(O)C2(CCOC(C)C2)NC1=O` (single isomer, unassigned) [I-a-16] as the compound, how does the “root-systemic effect (mortality)” value [5] read?
Its value is 100%.

What about the kill in % [4] of the same compound?
Its kill in % is 100%.

For `Cc1cc(Br)cc(C)c1C1=C(O)C2(CCOC(C)C2)NC1=O` (single isomer, unassigned) [I-a-18], which kill in % [4] is on record?
The kill in % was 100%.

For `Cc1cc(Cl)cc(Br)c1C1=C(O)C2(CCOC(C)C2)NC1=O` (single isomer, unassigned) [I-a-19], which kill in % [4] is on record?
Its kill in % is 100%.

What does the source list for `Cc1ccc(C)c(C2=C(O)C3(CCOC(C)C3)NC2=O)c1` (single isomer, unassigned) [I-a-20]?
kill in % [4]: 100%; kill in % [6]: 100%

Which kill in % [4] does the source give for `CCc1cc(Br)c(C2=C(O)C3(CCOC(C)C3)NC2=O)c(Br)c1` (single isomer, unassigned) [I-a-21] here?
The kill in % was 100%.

For `CCc1ccc(C2=C(O)C3(CCOC(C)C3)NC2=O)c(Cl)c1` (single isomer, unassigned) [I-a-22], which kill in % [2] is on record?
Its kill in % is 100%.

What does the source list for `CC(=O)OC1=C(c2c(C)cc(C)cc2C)C(=O)NC12CCOC(C)C2` (single isomer, unassigned) [I-b-2]?
kill in % [2]: 100%; effect (kill in %) [1, 8]: 100%

With `Cc1cc(C)c(C2=C(OC(=O)C(C)C)C3(CCOC(C)C3)NC2=O)c(C)c1` (single isomer, unassigned) [I-b-3] as the compound, how does the “effect (kill in %)” value [1, 8] read?
The value was 100%.

With `Cc1ccc(C2=C(OC(=O)C(C)C)C3(CCOC(C)C3)NC2=O)c(C)c1` (single isomer, unassigned) [I-b-4] as the compound, how does the kill in % [2] read?
The kill in % was 100%.

And the kill in % [3]?
Its kill in % is 100%.

And the “effect (kill in %)” value [1, 8]?
The value was 100%.

Which kill in % [2] does the source give for `CC(=O)OC1=C(c2c(C)cc(C)cc2C)C(=O)NC12CCOC(C)C2` (single isomer, unassigned) [I-b-5] here?
The kill in % was 100%.

How did the kill in % [2] turn out when `CC(=O)OC1=C(c2ccc(C)cc2C)C(=O)NC12CCOC(C)C2` (single isomer, unassigned) [I-b-6] was run?
The kill in % was 100%.

Which results are given for `Cc1ccc(C2=C(OC(=O)C(C)C)C3(CCOC(C)C3)NC2=O)c(C)c1` (single isomer, unassigned) [I-b-7]?
kill in % [2]: 100%; effect (kill in %) [1, 8]: 100%

With `Cc1ccc(C2=C(OC(=O)C(C)C)C3(CCOC(C)C3)NC2=O)c(Cl)c1` (single isomer, unassigned) [I-b-8] as the compound, how does the kill in % [2] read?
Its kill in % is 100%.

What about the kill in % [3] of the same compound?
The kill in % was 100%.

What about the “effect (kill in %)” value [1, 8] of the same compound?
The value was 100%.

`Cc1cc(C)c(C2=C(OC(=O)C(C)C)C3(CCOC(C)C3)NC2=O)c(C)c1C` (single isomer, unassigned) [I-b-11] was tested. Which kill in % [2] did it give?
The kill in % was 100%.

How did the “effect (kill in %)” value [1, 9] turn out when `CC1CC2(CCO1)NC(=O)C(c1ccc(Br)cc1Cl)=C2OC(=O)C(C)C` (single isomer, unassigned) [I-b-15] was run?
Its value is 100%.

For `CC1CC2(CCO1)NC(=O)C(c1ccc(Br)cc1Cl)=C2OC(=O)CC(C)(C)C` (single isomer, unassigned) [I-b-16], which “effect (kill in %)” value [1, 9] is on record?
Its value is 100%.

What does the source list for `Cc1cc(Cl)ccc1C1=C(OC(=O)C(C)C)C2(CCOC(C)C2)NC1=O` (single isomer, unassigned) [I-b-17]?
kill in % [4]: 100%; kill in % [2]: 100%; effect (kill in %) [1, 9]: 100%

With `CCc1ccc(C2=C(OC(=O)C(C)C)C3(CCOC(C)C3)NC2=O)c(Cl)c1` (single isomer, unassigned) [I-b-22] as the compound, how does the kill in % [2] read?
Its kill in % is 100%.

And the kill in % [3]?
Its kill in % is 100%.

What about the “effect (kill in %)” value [1, 9] of the same compound?
Its value is 100%.

What does the source list for `CCc1ccc(C2=C(OC(=O)c3cccs3)C3(CCOC(C)C3)NC2=O)c(Cl)c1` (single isomer, unassigned) [I-b-23]?
kill in % [2]: 100%; kill in % [3]: 100%

Which mortality at 20 ppm [7] does the source give for `Cc1cc(C)c(C2=C(O)C3(CCOC(C)C3)NC2=O)c(C)c1` (centres unmarked) [I-a-1] here?
The mortality at 20 ppm was 100%.

With `Cc1cc(C)c(C2=C(OC(=O)C(C)C)C3(CCOC(C)C3)NC2=O)c(C)c1` (centres unmarked) [I-b-1] as the compound, how does the kill in % [2] read?
Its kill in % is 100%.

And the mortality at 20 ppm [7]?
The mortality at 20 ppm was 100%.

`Cc1cc(Cl)cc(C)c1C1=C(OC(=O)C(C)C)C2(CCOC(C)C2)NC1=O` (centres unmarked) [I-b-25] was tested. Which “root-systemic effect (mortality)” value [5] did it give?
Its value is 100%.

With `CCOC(=O)OC1=C(c2c(C)cc(C)cc2C)C(=O)NC12CCOC(C)C2` (centres unmarked) [I-c-1] as the compound, how does the kill in % [2] read?
Its kill in % is 100%.

What about the mortality at 20 ppm [7] of the same compound?
Its mortality at 20 ppm is 100%.

What about the “effect (kill in %)” value [1, 8] of the same compound?
Its value is 100%.

What does the source list for `CCOC(=O)OC1=C(c2ccc(C)cc2C)C(=O)NC12CCOC(C)C2` (centres unmarked) [I-c-3]?
kill in % [2]: 100%; kill in % [3]: 100%; effect (kill in %) [1, 8]: 100%; kill in % [6]: 100%

With `CCOC(=O)OC1=C(c2ccc(C)cc2C)C(=O)NC12CCOC(C)C2` (centres unmarked) [I-c-4] as the compound, how does the kill in % [2] read?
Its kill in % is 100%.

And the “effect (kill in %)” value [1, 8]?
Its value is 100%.

For `CCOC(=O)OC1=C(c2c(C)cc(C)c(C)c2C)C(=O)NC12CCOC(C)C2` (centres unmarked) [I-c-5], which kill in % [2] is on record?
Its kill in % is 100%.

With `CCOC(=O)OC1=C(c2cc(C)c(C)cc2C)C(=O)NC12CCOC(C)C2` (centres unmarked) [I-c-7] as the compound, how does the kill in % [2] read?
The kill in % was 100%.

Which kill in % [4] does the source give for `CCOC(=O)OC1=C(c2ccc(Br)cc2Cl)C(=O)NC12CCOC(C)C2` (centres unmarked) [I-c-8] here?
The kill in % was 100%.

With `CCOC(=O)OC1=C(c2c(C)cc(Br)cc2C)C(=O)NC12CCOC(C)C2` (centres unmarked) [I-c-11] as the compound, how does the kill in % [4] read?
The kill in % was 100%.

And the kill in % [2]?
The kill in % was 100%.

`CCOC(=O)OC1=C(c2ccc(Cl)cc2Cl)C(=O)NC12CCOC(C)C2` (centres unmarked) [I-c-12] was tested. Which kill in % [4] did it give?
Its kill in % is 100%.

With `CCOC(=O)OC1=C(c2ccc(CC)cc2Cl)C(=O)NC12CCOC(C)C2` (centres unmarked) [I-c-13] as the compound, how does the kill in % [3] read?
Its kill in % is 100%.

What about the “effect (kill in %)” value [1, 9] of the same compound?
Its value is 100%.

What about the kill in % [6] of the same compound?
Its kill in % is 100%.

How did the kill in % [6] turn out when `CCOC(=O)OC1=C(c2cc(C)ccc2C)C(=O)NC12CCOC(C)C2` (centres unmarked) [I-c-15] was run?
The kill in % was 100%.
